Laboratory results as given in US20070048234A1, “COMPOSITIONS AND METHODS FOR TREATING ACNE” (REVANCE THERAPEUTICS, INC., priority 2005, published 2007).
Structures can show the parent of a compound that is named as a salt.

Tests used:
[1] = test system: propionibacterium acnes (P. Acnes); settings: compared with other medications on the market, prescription or otherwise; cited from earlier work
[2] = when topically applied; cited from earlier work
[3] = topical application; cited from earlier work
[4] = test system: acne lesion; test: topical multi-step treatment of an acne lesion (vasoconstricting composition, then anti-acne agent); assay type: in vivo; settings: upon topical application of the vasoconstricting composition to the acne lesion
From the text: (§1) This example provides a two step treatment for acne. The first step involves topically applying a vasoconstricting composition to the acne lesion to be treated. Suitable vasoconstricting compositions include tetrahydrozoline HCl 0.05%, naphazoline HCl 0.03%, or oxymetazoline HCl 0.025% in an aqueous base containing HPC to increase the viscosity for ease of application. Upon application of the vasoconstricting composition, the redness and swelling of the acne lesion diminishes, making the acne lesion less noticeable. After about 5 minutes, a second step is performed which involves topically applying 5% benzoyl peroxide 5% in an oil-in water moisturizer base. In this example, the benzoyl peroxide 5% is tinted to match the skin tone of the user, but this tinting is optional.
as §1, with “three-step nighttime” for “two step”, “peroxide” for “peroxide 5%”, “The acne lesion is then covered with a patch that includes silicone on” for “In this example,”, “skin-side” for “benzoyl peroxide 5% is tinted to match the skin tone”, “patch. The patch remains in place overnight and” for “user, but this tinting”, “removed in the morning.” for “optional.”
The following night, the three-step acne treatment is repeated.
This example provides a three-step acne treatment that is suitable for daytime use. The first step involves topically applying a vasoconstricting composition to the acne lesion to be treated. Suitable vasoconstricting compositions include tetrahydrozoline HCl 0.05%, naphazoline HCl 0.03%, or oxymetazoline HCl 0.025% in an aqueous base containing HPC to increase the viscosity for ease of application. […]

| SMILES | kills propionibacterium acnes (P. Acnes) [1] | share of the population that experiences skin allergies [2] | flux into the skin [3] | redness and swelling of the acne lesion [4] |
| --- | --- | --- | --- | --- |
| O=C(OOC(=O)c1ccccc1)c1ccccc1 [benzoyl peroxide] | better than any other medication on the market | about 10% | high | – |
| c1ccc2c(CC3=NCCN3)cccc2c1 [naphazoline HCl 0.03%, naphazoline HCl] | – | – | – | diminishes |
| Cc1cc(C(C)(C)C)c(O)c(C)c1CC1=NCCN1 [oxymetazoline HCl 0.025%, oxymetazoline HCl] | – | – | – | diminishes |
| c1ccc2c(c1)CCCC2C1=NCCN1 (stereo not drawn) [tetrahydrozoline HCl 0.05%, tetrahydrozoline HCl] | – | – | – | diminishes |
